For orientation: IC50 means the concentration needed to halve the response being measured.

The target of assay [1] is C-Raf Raf-1 (truncated), active (Homo sapiens, UniProt P04049, Y340D/Y341D). The experiment in a line: C-Raf kinase inhibition (MAPH assay / IMAP assay). The note with it: read-out: Biochemical IC50 C-Raf. The source says:
We characterized the in vitro inhibitory activity against protein kinases of compounds of the present invention by determining their IC50 values (see Table 2).
Kinase: C-Raf Raf-1 (truncated), active (Upstate; cat. no. 14-352)
Reaction Temperature: room temperature
Assay Plate: 96 well U bottom plate (Greiner, 650161)
MultiScreen-PH Plate: 96 well MAPH Filter Plates (Millipore, MAPHNOB50)
Filter Washing Solution: 0.75% H3PO4
Scintillation Liquid: Supermix Liquid Scintillator (PerkinElmer, 1200-439)
Negative Control (C−): 100 mM EDTA, no inhibitor
Positive Control (C+): no inhibitor
Reaction Buffer (Final Concentration):
Final Assay Concentrations:
Kinase: Use kinase conc. yielding 10% ATP turnover as determined in titration experiment.
Adenosine 5′-[γ-^33P]triphosphate: 12.5 μCi/ml (Amersham Biosciences, BF1000)
Substrate: Myelin Basic Protein 57.8 μM (Invitrogen, 13228-010)
Pipetting Sequence: • 1) Add 10 μl 4-fold concentrated substrate+4-fold concentrated ATP in 3-fold concentrated reaction buffer to each well of assay plate • 2) Add 10 μl […] concentrated inhibitor in 4% DMSO in H2O to each well except to C− and C+ wells (starting point: final inhibitor concentration 10 μM; IC50 determination based on dilution series) • 3) Add 10 μl 4% DMSO in H2O to C− and C+ wells • 4) Add 10 μl 500 mM EDTA in H2O to C− wells • 5) Add 10 μl 50 μCi/ml adenosine 5′-[γ-^33P]triphosphate in H2O to each well • 6) Add 10 μl […] concentrated kinase in Reaction Buffer to each well • 7) Incubate 1 hr at room temperature • 8) Add 10 μl 50 mM EDTA in H2O to each well except to C− wells • 9) Prepare MAPH plates by adding 200 μl 0.75% H3PO4 to each well • 10) Exhaust 0.75% H3PO4 using Millipore vacuum station • 11) Add 60 μl 0.75% H3PO4 to each well of MAPH filter plate • 12) Transfer 30 μl sample per well from assay plate to corresponding well of MAPH filter plate • 13) Incubate 30 min at room temperature • 14) Wash each well of MAPH filter plates 3× with 200 μl 0.75% H3PO4 using Millipore vacuum station • 15) Add 20 μl scintillation liquid to each well of MAPH filter plate • 16) Seal MAPH filter plate • 17) Store MAPH filter plate 30 min in darkness • 18) Quantify radioactivity using scintillation counter (MicroBeta, Perkin-Elmer)
Reaction Volume: 8.0108 μl
IMAP Incubation Time: 60 min
Assay Plate: 384 well U bottom, PP, black, low volume (Corning, 3676)
Compound Plate: 384 well U bottom, PS (Falcon, 3995)
IMAP Binding Buffer A: Molecular Devices, R7282
IMAP Binding Buffer B: Molecular Devices, R7283
IMAP Binding Reagent: Molecular Devices, R7207
Negative Control (C−): no kinase, no inhibitor
Reation buffer: 20 mM Hepes, pH 7.5 • 1 mM DTT • 10 mM MnCl2 • 0.01% Brij35
Kinase: Kinase conc. yielding 50% substrate turnover as determined in titration experiment • c-Raf (Upstate 14-352)
Substrate: 5F1-SGQLIDSMANSFV-NH2 400 nM (jpt Peptide Technologies GmbH, Berlin, Germany)
IMAP Binding Solution: 75% IMAP Binding Buffer A • 25% IMAP Binding Buffer B • IMAP Binding Reagent 1:800
Pipetting Sequence: • 1) Add 6 μl 1.33-fold concentrated substrate+1.33-fold concentrated ATP in 1-fold concentrated reaction buffer to each well of assay plate • 2) Add 10.8 nl 740-fold concentrated inhibitor in 100% DMSO to each well except to C− and C+ wells using pintool (CyBio, Jena, Germany) (starting point: final inhibitor concentration 10 μM; IC50 determination based on dilution series) • 3) Add 10.8 nl 100% DMSO to C− and C+ wells using pintool • 4) Add 2 μl reaction buffer to C− wells • 5) Add 2 μl 4-fold concentrated kinase in reaction buffer to each well except C− wells • 6) Incubate according to reaction time at room temperature • 7) Add 15 μl IMAP binding solution to each well • 8) Incubate according to IMAP incubation time at room temperature • 9) Measure fluorescence polarization (Analyst GT, Molecular Devices)

Assay [2] has as its target B-Raf delta1-415 (Homo sapiens, UniProt P15056). The experiment in a line: B-Raf kinase inhibition (MAPH filter plate, 33P-ATP, MEK1 substrate). The following applies: read-out: Biochemical IC50 B-Raf. The method, boiled down: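 Radiometric filter-binding assay with B-Raf delta1-415 at a level giving 50% turnover, MEK1 substrate and 33P-ATP (12.5 μCi/ml) in 20 mM Mops pH 7.0 with Mg/Mn, 1 h at room temperature. Inhibitor dilution series from 10 μM; EDTA-stopped reactions captured on phosphocellulose filters, counted by scintillation for IC50.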

Assay [3] relates to HT-29 tumor cells. The experiment in a line: Anti-proliferative activity, SRB assay. The class given is cell-based, human. The following applies: Homo sapiens, HT-29, 72 h, 72 hours exposure, read-out: CELLULAR IC50 HT-29. The method, boiled down:
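Cells at 3,000-15,000/well, plated 24 h before compound, exposed to a concentration range for 72 hours. Proliferation measured by SRB staining after cold TCA fixation, absorbance at OD570; IC50 estimated from % inhibition versus DMSO-treated cells.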
For orientation: The SRB assay estimates cell density from bound dye.

Chain of B-Raf delta1-415 (P15056 416-766): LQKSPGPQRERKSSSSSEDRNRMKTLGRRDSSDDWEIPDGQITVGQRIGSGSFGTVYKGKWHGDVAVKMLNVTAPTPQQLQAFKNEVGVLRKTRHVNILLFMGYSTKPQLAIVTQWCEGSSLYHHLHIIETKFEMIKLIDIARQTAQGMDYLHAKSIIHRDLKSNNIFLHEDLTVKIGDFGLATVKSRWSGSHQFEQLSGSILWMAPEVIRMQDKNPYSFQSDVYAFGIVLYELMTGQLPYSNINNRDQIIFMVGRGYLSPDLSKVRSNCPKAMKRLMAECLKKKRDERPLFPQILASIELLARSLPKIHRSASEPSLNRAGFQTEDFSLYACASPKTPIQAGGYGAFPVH
Chain of C-Raf Raf-1 (truncated), active (P04049 306-648 Y340D/Y341D): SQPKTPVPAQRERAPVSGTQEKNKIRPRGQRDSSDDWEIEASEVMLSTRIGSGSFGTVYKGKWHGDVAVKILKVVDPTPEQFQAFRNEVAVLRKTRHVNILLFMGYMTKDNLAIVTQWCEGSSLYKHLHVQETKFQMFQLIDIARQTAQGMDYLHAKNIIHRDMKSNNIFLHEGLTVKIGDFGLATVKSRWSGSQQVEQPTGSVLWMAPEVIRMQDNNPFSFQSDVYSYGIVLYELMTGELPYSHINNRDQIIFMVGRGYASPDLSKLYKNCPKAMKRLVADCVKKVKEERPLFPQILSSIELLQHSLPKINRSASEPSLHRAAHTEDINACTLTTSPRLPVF

In the case of `COc1cccc(Nc2ncc3cc(-c4c(Cl)cccc4Cl)c(=O)n(OCCN(C)C)c3n2)c1` [Compound 77, 6-(2,6-Dichlorophenyl)-8-(2-dimethylaminoethyl)oxy-2-(3-methoxyphenyl)amino-pyrido[2,3-d]pyrimidin-7-one], the figures for the concentration for half-maximal inhibition (IC50) in assay [1], in assay [2] and in assay [3] were less than 500 nM, less than 100 nM and less than 1000 nM, respectively.
On the same counts, the results for `COCCNc1ncc2cc(-c3c(Cl)cccc3Cl)c(=O)n(OC)c2n1` [Compound 48, 6-(2,6-Dichlorophenyl)-8-methoxy-2-methoxyethylamino-pyrido[2,3-d]pyrimidin-7-one] are less than 100 nM, less than 500 nM and more than 10000 nM.
As to `COn1c(=O)c(-c2cc(NC(=O)c3cccc(Cl)c3)ccc2Cl)cc2cnc(Nc3ccccc3)nc21` [Compound 36], the 50% inhibitory concentration (IC50) is less than 100 nM in assay [1], more than 1000 nM in assay [2] and less than 10000 nM in assay [3].
On the same counts, the results for `COc1cccc(Nc2ncc3cc(-c4c(Cl)cccc4Cl)c(=O)n(OCCN)c3n2)c1` [Compound 70, 8-(2-Aminoethyl)oxy-6-(2,6-dichlorophenyl)-2-(3-methoxyphenyl)amino-pyrido[2,3-d]pyrimidin-7-one] are less than 100 nM, less than 500 nM and less than 1000 nM.
On the same counts, the results for `COn1c(=O)c(-c2cccc(NC(=O)c3ccccc3)c2Cl)cc2cnc(Nc3ccccc3)nc21` [Compound 28] are less than 100 nM, more than 10000 nM and less than 1000 nM.
On the same counts, the results for `CC(=O)NCCCOn1c(=O)c(-c2c(Cl)cccc2Cl)cc2cnc(Nc3ccccc3)nc21` [Compound 57, 8-(3-Acetylaminopropyl)oxy-6-(2,6-dichlorophenyl)-2-phenylamino-pyrido[2,3-d]pyrimidin-7-one] are less than 100 nM, less than 1000 nM and less than 1000 nM.
On to `COn1c(=O)c(-c2ccccc2Cl)cc2cnc(Nc3cccc(S(N)(=O)=O)c3)nc21` [Compound 6, 6-(2-Chlorophenyl)-8-methoxy-2-(3-sulfamoylphenylamino)-pyrido[2,3-d]pyrimidin-7-one], for which the IC50 is less than 100 nM in assay [1], less than 500 nM in assay [2] and less than 1000 nM in assay [3].
As to `COn1c(=O)c(-c2c(Cl)cccc2Cl)cc2cnc(Nc3cccc(S(N)(=O)=O)c3)nc21` [Compound 4, 6-(2,6-Dichlorophenyl)-8-methoxy-2-(3-sulfamoylphenylamino)-pyrido[2,3-d]pyrimidin-7-one], the values for the IC50 in assay [1], in assay [2] and in assay [3] were less than 100 nM, less than 500 nM and less than 1000 nM, respectively.
On the same counts, the results for `COn1c(=O)c(-c2cc(NC(=O)C(C)C)ccc2Cl)cc2cnc(Nc3ccccc3)nc21` [Compound 32] are less than 100 nM, more than 1000 nM and less than 10000 nM.
On the same counts, the results for `O=c1c(-c2ccccc2Cl)cc2cnc(Nc3ccccc3)nc2n1OCC1CC1` [Compound 49, 6-(2-Chlorophenyl)-8-cyclopropylmethoxy-2-phenylamino-pyrido[2,3-d]pyrimidin-7-one] are less than 100 nM, more than 1000 nM and less than 10000 nM.
On the same counts, the results for `COn1c(=O)c(-c2cc(NC(=O)c3cccnc3)ccc2Cl)cc2cnc(Nc3ccccc3)nc21` [Compound 31] are less than 100 nM, more than 1000 nM and less than 10000 nM.
As for `COn1c(=O)c(-c2c(C)cccc2C)cc2cnc(Nc3ccc(N4CCN(C)CC4)cc3)nc21` [Compound 38, 6-(2,6-Dimethylphenyl)-8-methoxy-2-(4-(4-methylpiperazino)-phenylamino)-pyrido[2,3-d]pyrimidin-7-one], the values for the half-inhibitory concentration (IC50) in assay [1], in assay [2] and in assay [3] were less than 100 nM, less than 100 nM and less than 1000 nM, respectively.
`COn1c(=O)c(-c2c(Cl)cccc2Cl)cc2cnc(Nc3ccc(CCO)cc3)nc21` [Compound 17, 6-(2,6-Dichlorophenyl)-8-methoxy-2-(4-(2-hydroxyethyl)-phenylamino)-pyrido[2,3-d]pyrimidin-7-one]: the values for the half-inhibitory concentration (IC50) in assay [1], in assay [2] and in assay [3] were less than 100 nM, less than 100 nM and less than 1000 nM, respectively.
For the compound `COc1cccc(Nc2ncc3cc(-c4c(Cl)cccc4Cl)c(=O)n(OCCCCN)c3n2)c1` [Compound 41, 8-(4-Aminobutoxy)-6-(2,6-dichlorophenyl)-2-(3-methoxyphenylamino)-pyrido[2,3-d]pyrimidin-7-one], the half-maximal inhibitory concentration (IC50) was less than 100 nM in assay [1], less than 500 nM in assay [2] and less than 1000 nM in assay [3].
Turning to `COn1c(=O)c(-c2c(Cl)cccc2Cl)cc2cnc(Nc3cccc(S(=O)(=O)CCO)c3)nc21` [Compound 10, 6-(2,6-Dichlorophenyl)-8-methoxy-2-(3-(2-hydroxyethylsulfonyl)phenylamino)-pyrido[2,3-d]pyrimidin-7-one], the IC50 is less than 100 nM in assay [1], less than 100 nM in assay [2] and less than 1000 nM in assay [3].
For `COn1c(=O)c(C(=O)Nc2ccccc2)cc2cnc(Nc3ccccc3)nc21` [Compound 61, 8-Methoxy-2-phenylamino-6-phenylaminocarbonyl-pyrido[2,3-d]pyrimidin-7-one], the IC50 is more than 10000 nM in assay [1], more than 10000 nM in assay [2] and less than 10000 nM in assay [3].
Regarding `COc1cccc(Nc2ncc3cc(-c4c(C)cccc4C)c(=O)n(OC)c3n2)c1` [Compound 69, 6-(2,6-Dimethylphenyl)-8-methoxy-2-(3-methoxyphenyl)-amino-pyrido[2,3-d]pyrimidin-7-one], the concentration for half-maximal inhibition (IC50) in assay [1] was less than 100 nM; in assay [2], less than 500 nM; in assay [3] it was less than 1000 nM.
With `COn1c(=O)c(-c2c(F)cccc2Cl)cc2cnc(Nc3cccc(S(N)(=O)=O)c3)nc21` [Compound 30, 6-(2-Chloro-6-fluorophenyl)-8-methoxy-2-(3-sulfamoylphenylamino)-pyrido[2,3-d]pyrimidin-7-one], the figures for the IC50 in assay [1], in assay [2] and in assay [3] were less than 100 nM, less than 100 nM and less than 1000 nM, respectively.
Regarding `COn1c(=O)c(-c2c(F)cccc2Cl)cc2cnc(Nc3ccc(N4CCN(C)CC4)cc3)nc21` [Compound 25, 6-(2-Chloro-6-fluorophenyl)-8-methoxy-2-(4-(4-methylpiperazino)-phenylamino)-pyrido[2,3-d]pyrimidin-7-one], the figures for the IC50 in assay [1], in assay [2] and in assay [3] were less than 100 nM, less than 100 nM and less than 1000 nM, respectively.
